Results published in article PMC10148158, “Mechanism and linkage specificities of the dual retaining β-Kdo glycosyltransferase modules of KpsC from bacterial capsule biosynthesis” (The Journal of Biological Chemistry, 2023).

Biological target: T1, KpsC-NEc (E. coli KpsC^2-323) (Escherichia coli, UniProt A0A0H2Z2W8)
T1 construct: N-terminal GT module, residues 2-323, His6-tag kept, expressed in E. coli BL21(DE3)
Experiment: LC-MS of intact protein
Assay type: biochemical
Conditions: covalent; Kdo on Asp160; CMP-Kdo made in situ by KdsB; no acceptor

T1 sequence (A0A0H2Z2W8 entry or part of it): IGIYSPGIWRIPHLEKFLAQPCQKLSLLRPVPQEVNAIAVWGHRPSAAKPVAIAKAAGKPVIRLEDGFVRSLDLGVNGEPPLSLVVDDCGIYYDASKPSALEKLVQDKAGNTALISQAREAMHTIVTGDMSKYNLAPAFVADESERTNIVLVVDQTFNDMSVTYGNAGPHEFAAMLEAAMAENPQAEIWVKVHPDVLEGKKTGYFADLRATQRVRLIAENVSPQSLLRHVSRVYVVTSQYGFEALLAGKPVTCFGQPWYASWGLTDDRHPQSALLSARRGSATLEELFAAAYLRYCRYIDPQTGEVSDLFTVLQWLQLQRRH

SMILES: Nc1ccn([C@@H]2O[C@H](COP(=O)(O)O[C@@]3(C(=O)O)C[C@@H](O)[C@@H](O)[C@@H]([C@H](O)CO)O3)[C@@H](O)[C@H]2O)c(=O)n1 [CMP-Kdo]
- Kdo adduct mass increase: The native KpsC-NEc enzyme therefore appears capable of forming covalent Kdo adducts in vitro.
